Results as given in patent publication US20230117034A1, “PYRAZOLOTRIAZINES” (Bayer Aktiengesellschaft, priority 2019, published 2023).

Assays:
[1] = biological target: CDK12/CycK (Homo sapiens, UniProt Q9NYV4); assay: CDK12/CycK high ATP kinase assay (TR-FRET, 2 mM ATP); format: biochemical; conditions: 2 mM ATP (high ATP); median; read-out: CDK12/CyclinK, 2 mM ATP (high ATP), IC50-[mol/l] (median)
How it was run: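 Read-out is TR-FRET (Eu-anti-rabbit IgG, anti-phospho-c-Myc Ser62 antibody, streptavidin-XL665) after EDTA stop. Reaction ran 60 min at 22 °C using 1 µM biotin-peptide and high ATP (2 mM) with roughly 0.75 nM recombinant CDK12/CycK, after 15 min compound pre-binding; normalised emission ratios yield IC50.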

[2] = biological target: T1, CYCLIN K (nuclear staining in CAL-120 cells) (Homo sapiens, UniProt O75909); assay: CYCLIN K nuclear protein level: immunofluorescence high content analysis (CAL-120); format: cell-based; conditions: 24 h, 50% reduction of nuclear CCNK staining intensity, median, read-out: CYCLIN K degradation IF, DC50-[mol/l] (median)
T1 construct: endogenous in cells; host or cells: CAL-120 human breast cancer cells (DSMZ ACC 459)
How it was run: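 Readout is automated confocal image analysis of nuclear cyclin K immunofluorescence (Hoechst nuclei) after PFA fixation. Cells were CAL-120, exposed to compound dose-response 24 h at 37 °C; values are DC50 for halving nuclear CCNK signal relative to DMSO and control wells.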

CDK12/CycK, sequence (Q9NYV4 with tags, fused parts or gaps): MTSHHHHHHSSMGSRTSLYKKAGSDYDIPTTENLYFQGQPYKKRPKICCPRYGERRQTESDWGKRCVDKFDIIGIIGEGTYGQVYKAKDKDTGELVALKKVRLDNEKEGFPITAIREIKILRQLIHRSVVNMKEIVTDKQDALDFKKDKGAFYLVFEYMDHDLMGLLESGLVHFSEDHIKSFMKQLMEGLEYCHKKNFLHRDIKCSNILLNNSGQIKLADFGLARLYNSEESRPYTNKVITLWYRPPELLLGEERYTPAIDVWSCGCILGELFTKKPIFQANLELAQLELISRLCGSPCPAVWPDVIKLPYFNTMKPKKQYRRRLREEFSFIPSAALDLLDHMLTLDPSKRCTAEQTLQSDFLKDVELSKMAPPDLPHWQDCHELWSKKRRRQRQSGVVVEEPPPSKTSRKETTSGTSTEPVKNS
CDK12/CycK, sequence (O75909 1-300 partner limits assumed): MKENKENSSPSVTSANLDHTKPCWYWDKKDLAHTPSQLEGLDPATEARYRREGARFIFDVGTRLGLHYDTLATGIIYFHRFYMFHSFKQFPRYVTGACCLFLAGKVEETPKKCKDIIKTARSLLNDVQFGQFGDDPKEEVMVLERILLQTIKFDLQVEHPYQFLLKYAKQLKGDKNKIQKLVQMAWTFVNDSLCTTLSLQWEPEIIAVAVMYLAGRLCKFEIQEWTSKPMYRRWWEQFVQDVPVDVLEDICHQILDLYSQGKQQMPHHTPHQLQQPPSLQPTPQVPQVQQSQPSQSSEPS
T1 sequence (O75909 whole entry): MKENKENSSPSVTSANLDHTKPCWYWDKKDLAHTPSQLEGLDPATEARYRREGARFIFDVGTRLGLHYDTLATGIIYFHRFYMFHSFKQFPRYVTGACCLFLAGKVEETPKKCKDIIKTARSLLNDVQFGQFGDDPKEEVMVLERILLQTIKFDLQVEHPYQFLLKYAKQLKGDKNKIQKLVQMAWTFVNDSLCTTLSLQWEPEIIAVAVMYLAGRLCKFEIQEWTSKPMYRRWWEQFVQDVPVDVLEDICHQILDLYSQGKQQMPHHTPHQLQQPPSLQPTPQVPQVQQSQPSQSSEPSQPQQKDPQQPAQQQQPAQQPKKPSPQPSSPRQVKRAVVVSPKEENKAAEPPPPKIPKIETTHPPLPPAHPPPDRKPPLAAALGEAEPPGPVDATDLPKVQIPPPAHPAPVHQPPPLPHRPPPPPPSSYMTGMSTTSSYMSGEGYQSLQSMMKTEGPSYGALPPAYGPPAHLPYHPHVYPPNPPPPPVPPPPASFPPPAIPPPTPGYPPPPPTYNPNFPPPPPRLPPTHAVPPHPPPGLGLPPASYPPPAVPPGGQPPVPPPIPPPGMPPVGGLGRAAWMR
T1 sequence (Q9NYV4 whole entry partner): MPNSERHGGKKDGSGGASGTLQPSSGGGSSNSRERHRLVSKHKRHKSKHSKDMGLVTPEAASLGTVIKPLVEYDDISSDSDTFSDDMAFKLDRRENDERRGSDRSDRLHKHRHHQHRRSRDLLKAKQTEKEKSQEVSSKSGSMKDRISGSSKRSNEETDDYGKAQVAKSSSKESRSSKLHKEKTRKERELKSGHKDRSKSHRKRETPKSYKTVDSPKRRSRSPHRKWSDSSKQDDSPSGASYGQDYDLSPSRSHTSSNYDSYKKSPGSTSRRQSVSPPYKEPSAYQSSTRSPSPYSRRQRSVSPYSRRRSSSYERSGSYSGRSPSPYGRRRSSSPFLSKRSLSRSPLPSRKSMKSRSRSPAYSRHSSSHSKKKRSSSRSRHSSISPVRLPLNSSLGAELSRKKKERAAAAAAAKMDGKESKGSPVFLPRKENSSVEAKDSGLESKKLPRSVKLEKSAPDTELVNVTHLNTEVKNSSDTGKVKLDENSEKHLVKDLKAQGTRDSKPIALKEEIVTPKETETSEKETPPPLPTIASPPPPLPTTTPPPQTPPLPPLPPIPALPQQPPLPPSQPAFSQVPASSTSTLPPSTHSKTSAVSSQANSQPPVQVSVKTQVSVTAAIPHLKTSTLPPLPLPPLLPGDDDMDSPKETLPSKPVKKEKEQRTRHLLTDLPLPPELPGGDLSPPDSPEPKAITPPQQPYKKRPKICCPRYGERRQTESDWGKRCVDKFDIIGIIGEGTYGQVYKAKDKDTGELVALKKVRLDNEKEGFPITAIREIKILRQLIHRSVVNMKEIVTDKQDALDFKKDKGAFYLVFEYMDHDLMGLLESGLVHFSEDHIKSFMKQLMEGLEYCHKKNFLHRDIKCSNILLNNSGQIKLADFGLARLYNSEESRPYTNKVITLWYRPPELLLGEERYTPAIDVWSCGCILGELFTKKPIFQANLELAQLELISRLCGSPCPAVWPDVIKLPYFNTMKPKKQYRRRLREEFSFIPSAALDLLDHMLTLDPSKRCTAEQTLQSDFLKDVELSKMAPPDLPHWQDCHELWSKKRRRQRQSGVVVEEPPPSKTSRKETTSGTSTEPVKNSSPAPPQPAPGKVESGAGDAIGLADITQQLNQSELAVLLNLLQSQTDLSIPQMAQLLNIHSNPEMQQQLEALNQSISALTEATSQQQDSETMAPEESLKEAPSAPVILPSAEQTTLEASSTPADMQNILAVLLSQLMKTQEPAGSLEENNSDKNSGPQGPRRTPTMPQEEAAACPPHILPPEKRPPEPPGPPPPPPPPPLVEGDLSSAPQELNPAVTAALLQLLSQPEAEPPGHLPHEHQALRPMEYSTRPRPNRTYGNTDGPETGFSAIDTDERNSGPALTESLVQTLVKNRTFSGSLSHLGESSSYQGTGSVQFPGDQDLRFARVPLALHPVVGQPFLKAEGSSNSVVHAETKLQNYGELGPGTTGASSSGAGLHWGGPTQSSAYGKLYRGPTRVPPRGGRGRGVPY

| IC50 [1] [nM] | DC50 [2] [nM] | Compound |
| --- | --- | --- |
| 2380 | 0.492 | CN(CC(C)(C)O)c1nc(NCc2nc3cc(F)c(F)cc3[nH]2)n2ncc(C3CC3)c2n1 [Example 319, 1-[(8-cyclopropyl-4-{[(5,6-difluoro-1H-benzimidazol-2-yl)methyl]amino}pyrazolo[1,5-a][1,3,5]triazin-2-yl)(methyl)amino]-2-methylpropan-2-ol] |
| 269 | 0.227 | Fc1c(Cl)ccc2[nH]c(CNc3nc(N4CCOCC4)nc4c(Br)cnn34)nc12 [Example 372, 8-bromo-N-[(5-chloro-4-fluoro-1H-benzimidazol-2-yl)methyl]-2-(morpholin-4-yl)pyrazolo[1,5-a][1,3,5]triazin-4-amine] |
| 661 | 0.698 | CN(CC(C)(C)O)c1nc(NCc2nc3cc(C(F)(F)F)ccc3[nH]2)n2ncc(Br)c2n1 [Example 345, 1-{[8-bromo-4-({[5-(trifluoromethyl)-1H-benzimidazol-2-yl]methyl}amino)pyrazolo[1,5-a][1,3,5]triazin-2-yl](methyl)amino}-2-methylpropan-2-ol] |
| 6650 | 0.053 | Cc1cc2nc(CNc3nc(N4CCN(C)CC4)nc4c(Br)cnn34)[nH]c2cc1C [Example 342, 8-bromo-N-[(5,6-dimethyl-1H-benzimidazol-2-yl)methyl]-2-(4-methylpiperazin-1-yl)pyrazolo[1,5-a][1,3,5]triazin-4-amine] |
| 2950 | 4.1 | CC(C)c1cnn2c(NCc3ncc(-c4ccccc4)[nH]3)nc(N3CCOCC3)nc12 [Example 30, 2-(morpholin-4-yl)-N-[(5-phenyl-1H-imidazol-2-yl)methyl]-8-(propan-2-yl)pyrazolo[1,5-a][1,3,5]triazin-4-amine] |
| 416 | 1.36 | Cc1cc2nc(CNc3nc(N(C)CC(C)(C)O)nc4c(C5CC5)cnn34)[nH]c2cc1C [Example 321, 1-[(8-cyclopropyl-4-{[(5,6-dimethyl-1H-benzimidazol-2-yl)methyl]amino}pyrazolo[1,5-a][1,3,5]triazin-2-yl)(methyl)amino]-2-methylpropan-2-ol] |
| 3480 | 66.3 | Cc1[nH]c(CNc2nc(N3CCOCC3)nc3c(Br)cnn23)nc1-c1ccccc1 [Example 27, 8-bromo-N-[(5-methyl-4-phenyl-1H-imidazol-2-yl)methyl]-2-(morpholin-4-yl)pyrazolo[1,5-a][1,3,5]triazin-4-amine] |
| 618 | 0.827 | Cc1cc2nc(CNc3nc(N4CCOCC4)nc4c(Br)cnn34)[nH]c2cc1C [Example 340, 8-bromo-N-[(5,6-dimethyl-1H-benzimidazol-2-yl)methyl]-2-(morpholin-4-yl)pyrazolo[1,5-a][1,3,5]triazin-4-amine] |
| 188 | 0.0978 | Cc1cc2nc(CNc3nc(N(C)CC(C)(C)O)nc4c(Br)cnn34)[nH]c2cc1C [Example 343, 1-[(8-bromo-4-{[(5,6-dimethyl-1H-benzimidazol-2-yl)methyl]amino}pyrazolo[1,5-a][1,3,5]triazin-2-yl)(methyl)amino]-2-methylpropan-2-ol] |
| 12200 | 0.149 | CN1CCN(c2nc(NCc3nc4cc(F)c(F)cc4[nH]3)n3ncc(Br)c3n2)CC1 [Example 346, 8-bromo-N-[(5,6-difluoro-1H-benzimidazol-2-yl)methyl]-2-(4-methylpiperazin-1-yl)pyrazolo[1,5-a][1,3,5]triazin-4-amine] |
| 8370 | 0.392 | CN1CCN(c2nc(NCc3nc4cc(C(F)(F)F)ccc4[nH]3)n3ncc(Br)c3n2)CC1 [Example 344, 8-bromo-2-(4-methylpiperazin-1-yl)-N-{[5-(trifluoromethyl)-1H-benzimidazol-2-yl]methyl}pyrazolo[1,5-a][1,3,5]triazin-4-amine] |
| 1810 | – | CN(CC(C)(C)O)c1nc(NCc2nc3c(F)cccc3[nH]2)n2ncc(Cl)c2n1 [Example 366, 1-[(8-chloro-4-{[(4-fluoro-1H-benzimidazol-2-yl)methyl]amino}pyrazolo[1,5-a][1,3,5]triazin-2-yl)(methyl)amino]-2-methylpropan-2-ol] |
| 2850 | – | CN(CC(C)(C)O)c1nc(NCc2nc3cc(C(F)(F)F)ccc3[nH]2)n2ncc(C3CC3)c2n1 [Example 323, 1-{[8-cyclopropyl-4-({[5-(trifluoromethyl)-1H-benzimidazol-2-yl]methyl}amino)pyrazolo[1,5-a][1,3,5]triazin-2-yl](methyl)amino}-2-methylpropan-2-ol] |
| 5250 | – | Brc1cnn2c(NCc3nc4ccccc4[nH]3)nc(N3CC4CCC3CO4)nc12 (stereo not drawn) [Example 352, N-[(1H-benzimidazol-2-yl)methyl]-8-bromo-2-(2-oxa-5-azabicyclo[2.2.2]octan-5-yl)pyrazolo[1,5-a][1,3,5]triazin-4-amine] |
| > 20000 | – | CC[C@H](COC)Nc1nc(NCc2nc3ccccc3[nH]2)n2ncc(Br)c2n1 [Example 369, N4-[(1H-benzimidazol-2-yl)methyl]-8-bromo-N2-[(2R)-1-methoxybutan-2-yl]pyrazolo[1,5-a][1,3,5]triazine-2,4-diamine] |
| 11600 | – | CN1CCN(c2nc(NCc3nc4c(F)c(F)ccc4[nH]3)n3ncc(Cl)c3n2)CC1 [Example 358, 8-chloro-N-[(4,5-difluoro-1H-benzimidazol-2-yl)methyl]-2-(4-methylpiperazin-1-yl)pyrazolo[1,5-a][1,3,5]triazin-4-amine] |
| 5850 | – | CN(c1nc(NCc2nc3ccccc3[nH]2)n2ncc(Br)c2n1)[C@H]1C[C@H](O)C1 [Example 365, trans-3-[(4-{[(1H-benzimidazol-2-yl)methyl]amino}-8-bromopyrazolo[1,5-a][1,3,5]triazin-2-yl)(methyl)amino]cyclobutan-1-ol] |
| 1550 | – | FC(F)(F)c1ccc2[nH]c(CNc3nc(N4CCOCC4)nc4c(Br)cnn34)nc2c1 [Example 339, 8-bromo-2-(morpholin-4-yl)-N-{[5-(trifluoromethyl)-1H-benzimidazol-2-yl]methyl}pyrazolo[1,5-a][1,3,5]triazin-4-amine] |

| Compound | IC50 [1] [nM] | DC50 [2] [nM] |
| --- | --- | --- |
| Clc1cc2nc(CNc3nc(N4CC5CCC(C4)N5)nc4c(Br)cnn34)[nH]c2cc1Cl [Example 334, 8-bromo-2-(3,8-diazabicyclo[3.2.1]octan-3-yl)-N-[(5,6-dichloro-1H-benzimidazol-2-yl)methyl]pyrazolo[1,5-a][1,3,5]triazin-4-amine] | 2030 | 2.06 |
| CN1C2CCC1CN(c1nc(NCc3nc4c(F)c(F)ccc4[nH]3)n3ncc(C(F)(F)F)c3n1)C2 [Example 356, N-[(4,5-difluoro-1H-benzimidazol-2-yl)methyl]-2-(8-methyl-3,8-diazabicyclo[3.2.1]octan-3-yl)-8-(trifluoromethyl)pyrazolo[1,5-a][1,3,5]triazin-4-amine] | 4910 | 2.01 |
| FC(F)(F)c1ccc2[nH]c(CNc3nc(N4CC5CCC(C4)N5)nc4c(C5CC5)cnn34)nc2c1 [Example 327, 8-cyclopropyl-2-(3,8-diazabicyclo[3.2.1]octan-3-yl)-N-{[5-(trifluoromethyl)-1H-benzimidazol-2-yl]methyl}pyrazolo[1,5-a][1,3,5]triazin-4-amine] | 2350 | 0.493 |
| Fc1cc2nc(CNc3nc(N4CC5CCC(C4)N5)nc4c(C5CC5)cnn34)[nH]c2cc1F [Example 325, 8-cyclopropyl-2-(3,8-diazabicyclo[3.2.1]octan-3-yl)-N-[(5,6-difluoro-1H-benzimidazol-2-yl)methyl]pyrazolo[1,5-a][1,5]triazin-4-amine] | 3550 | 0.53 |
| Fc1cc2nc(CNc3nc(N4CC5CCC(C4)N5)nc4c(Br)cnn34)[nH]c2cc1F [Example 355, 8-bromo-2-(3,8-diazabicyclo[3.2.1]octan-3-yl)-N-[(5,6-difluoro-1H-benzimidazol-2-yl)methyl]pyrazolo[1,5-a][1,3,5]triazin-4-amine] | 4180 | 0.481 |
| Fc1c(Cl)ccc2[nH]c(CNc3nc(N4CC5CCC(C4)N5)nc4c(Br)cnn34)nc12 [Example 380, 8-bromo-N-[(5-chloro-4-fluoro-1H-benzimidazol-2-yl)methyl]-2-(3,8-diazabicyclo[3.2.1]octan-3-yl)pyrazolo[1,5-a][1,3,5]triazin-4-amine] | 1020 | 0.22 |
| Fc1cc2nc(CNc3nc(N4CC5CCC(C4)N5)nc4c(Br)cnn34)[nH]c2cc1Cl [Example 348, 8-bromo-N-[(6-chloro-5-fluoro-1H-benzimidazol-2-yl)methyl]-2-(3,8-diazabicyclo[3.2.1]octan-3-yl)pyrazolo[1,5-a][1,3,5]triazin-4-amine] | 2890 | 1.17 |
| Fc1cc2nc(CNc3nc(N4C[C@H]5CC[C@@H](C4)N5)nc4c(C5CC5)cnn34)[nH]c2cc1Cl [Example 328, N-[(6-chloro-5-fluoro-1H-benzimidazol-2-yl)methyl]-8-cyclopropyl-2-[(1R,5S)-3,8-diazabicyclo[3.2.1]octan-3-yl]pyrazolo[1,5-a][1,3,5]triazin-4-amine] | 1660 | – |
| Clc1cc2nc(CNc3nc(N4CC5CCC(C4)N5)nc4c(C5CC5)cnn34)[nH]c2cc1Cl [Example 324, 8-cyclopropyl-2-(3,8-diazabicyclo[3.2.1]octan-3-yl)-N-[(5,6-dichloro-1H-benzimidazol-2-yl)methyl]pyrazolo[1,5-a][1,3,5]triazin-4-amine] | 859 | – |
